Data taken from patent US20250163038A1, “CBL-B MODULATORS AND USES THEREOF” (Nimbus Clio, Inc., priority 2021, published 2025).
Where two headings read alike, the source gives them in different places.

Legend:
[1] = biological target: Recombinant human Cbl-b (aa 36-427) (Homo sapiens, UniProt Q13191); experiment: Cbl-b Biochemical Assay (TR-FRET); conditions: read-out: TR-FRET hCbl-b IC50
[2] = test system: Jurkat (clone E6-1) cells with NFAT luciferase reporter; experiment: Jurkat reporter assay (NFAT Luciferase); assay type: cell-based; conditions: Jurkat NFAT luciferase reporter cells, anti-CD3 stimulation, 6 hr, read-out: Jurkat NFAT EC50
[3] = biological target: T1, Recombinant human c-Cbl (aa 47-435) (Homo sapiens, UniProt P22681); experiment: c-Cbl Biochemical Assay (TR-FRET); conditions: hc-Cbl Biochemical Assay (TR-FRET); read-out: TR-FRET hcCbl IC50
T1 sequence (P22681 47-435): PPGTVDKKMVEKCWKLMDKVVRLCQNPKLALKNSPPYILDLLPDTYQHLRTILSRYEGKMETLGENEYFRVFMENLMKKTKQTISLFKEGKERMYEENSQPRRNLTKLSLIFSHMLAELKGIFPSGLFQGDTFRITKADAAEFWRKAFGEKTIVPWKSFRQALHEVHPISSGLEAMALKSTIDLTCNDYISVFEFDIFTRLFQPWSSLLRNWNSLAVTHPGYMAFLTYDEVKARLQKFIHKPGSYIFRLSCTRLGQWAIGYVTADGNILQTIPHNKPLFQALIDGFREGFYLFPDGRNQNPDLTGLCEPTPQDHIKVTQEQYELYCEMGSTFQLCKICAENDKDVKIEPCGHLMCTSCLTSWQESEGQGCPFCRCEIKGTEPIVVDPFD

Chain of Recombinant human Cbl-b (aa 36-427) (Q13191 36-427): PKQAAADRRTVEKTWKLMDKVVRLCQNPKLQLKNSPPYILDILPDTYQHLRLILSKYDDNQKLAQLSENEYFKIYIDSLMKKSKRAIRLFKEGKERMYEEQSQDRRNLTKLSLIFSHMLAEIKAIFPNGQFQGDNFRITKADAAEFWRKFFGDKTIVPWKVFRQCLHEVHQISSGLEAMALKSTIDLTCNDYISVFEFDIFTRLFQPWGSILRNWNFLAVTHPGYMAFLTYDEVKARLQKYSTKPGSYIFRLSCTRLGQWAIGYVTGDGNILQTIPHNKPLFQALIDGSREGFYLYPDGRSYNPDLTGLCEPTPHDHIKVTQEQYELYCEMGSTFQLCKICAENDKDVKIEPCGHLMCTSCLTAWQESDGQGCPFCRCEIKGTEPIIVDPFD

Row | SMILES | IC50 [1] [nM] | EC50 ([2]; Homo sapiens) [nM] | IC50 [3] [nM] | EC50 [2] [nM]
1 | Cn1cnnc1CC1(c2cccc(-c3nc4cc(CN5CCC6(CC6)C5)cc(C(F)(F)F)c4[nH]3)c2)COC1 [ABK-1, 5-((5-Azaspiro[2.4]heptan-5-yl)methyl)-2-(3-(3-((4-methyl-4H-1,2,4-triazol-3-yl)methyl)oxetan-3-yl)phenyl)-7-(trifluoromethyl)-1H-benzo[d]imidazole] | 200 to 1000 | 1000 to 10000 | 1000 to 10000 | 
2 | Cn1cnnc1-c1cc(F)ccc1-c1cccc(-c2nc3cc(CNCC4(O)COC4)cc(C(F)(F)F)c3o2)c1 [AC-2, 3-((((2-(4′-Fluoro-2′-(4-methyl-4H-1,2,4-triazol-3-yl)-[1,1′-biphenyl]-3-yl)-7-(trifluoromethyl)benzo[d]oxazol-5-yl)methyl)amino)methyl)oxetan-3-ol] | < 200 | 200 to 1000 | 1000 to 10000 | 
3 | Cn1cnnc1-c1ccccc1-c1cccc(-c2nc3cc(CN4CCC5(CC5)C4)cc(C(F)(F)F)c3[nH]2)c1 [ACF-1, 5-((5-Azaspiro[2.4]heptan-5-yl)methyl)-2-(2′-(4-methyl-4H-1,2,4-triazol-3-yl)-[1,1′-biphenyl]-3-yl)-7-(trifluoromethyl)-1H-benzo[d]imidazole] | 200 to 1000 | 1000 to 10000 | 10000 to 50000 | 
4 | CC(c1cc(C(F)(F)F)c2[nH]c(-c3cccc(C4(Cc5nncn5C)COC4)c3)nc2c1)N1CCC2(CC2)C1 (stereo not drawn) [ACK-3, 5-(1-(5-Azaspiro[2.4]heptan-5-yl)ethyl)-2-(3-(3-((4-methyl-4H-1,2,4-triazol-3-yl)methyl)oxetan-3-yl)phenyl)-7-(trifluoromethyl)-1H-benzo[d]imidazole] | 200 to 1000 | 1000 to 10000 | 10000 to 50000 | 
5 | C[C@@H](c1cc(C(F)(F)F)c2[nH]c(-c3cccc(C4(Cc5nncn5C)COC4)c3)nc2c1)N1CCC2(CC2)C1 [ACM-1, (S)-5-(1-(5-Azaspiro[2.4]heptan-5-yl)ethyl)-2-(3-(3-((4-methyl-4H-1,2,4-triazol-3-yl)methyl)oxetan-3-yl)phenyl)-7-(trifluoromethyl)-1H-benzo[d]imidazole] | 200 to 1000 | 1000 to 10000 | 10000 to 50000 | 
6 | C[C@H](c1cc(C(F)(F)F)c2[nH]c(-c3cccc(C4(Cc5nncn5C)COC4)c3)nc2c1)N1CCC2(CC2)C1 [ACN-1, (R)-5-(1-(5-Azaspiro[2.4]heptan-5-yl)ethyl)-2-(3-(3-((4-methyl-4H-1,2,4-triazol-3-yl)methyl)oxetan-3-yl)phenyl)-7-(trifluoromethyl)-1H-benzo[d]imidazole] | 200 to 1000 | 1000 to 10000 | 200 to 1000 | 
7 | Cn1cnnc1-c1cc(F)ccc1-c1cc(-c2nc3cc(CN[C@@H]4CCC[C@@H]4O)cc(C(F)(F)F)c3o2)cc(C2CC2)c1 [ACZ-8, (1S,2R)-2-[({2-[5-Cyclopropyl-4′-fluoro-2′-(4-methyl-1,2,4-triazol-3-yl)-[1,1′-biphenyl]-3-yl]-7-(trifluoromethyl)-1,3-benzoxazol-5-yl}methyl)amino]cyclopentan-1-ol] | < 200 | < 200 | < 200 | 
8 | Cn1cnnc1-c1cc(F)ccc1-c1cccc(-c2nc3cc(CN4CC[C@H](O)C4)cc(C(F)(F)F)c3o2)c1 [AD-2, (S)-1-((2-(4′-Fluoro-2′-(4-methyl-4H-1,2,4-triazol-3-yl)-[1,1′-biphenyl]-3-yl)-7-(trifluoromethyl)benzo[d]oxazol-5-yl)methyl)pyrrolidin-3-ol] | < 200 | 1000 to 10000 | 1000 to 10000 | 
9 | Cn1cnnc1-c1cc(F)ccc1-c1cc(-c2nc3cc(CN[C@@H]4CCC[C@@H]4O)cc(C(F)(F)F)c3o2)nc(C2CC2)c1 [ADA-6, (1S,2R)-2-{[(2-{6-Cyclopropyl-4-[4-fluoro-2-(4-methyl-1,2,4-triazol-3-yl)phenyl]pyridin-2-yl}-7-(trifluoromethyl)-1,3-benzoxazol-5-yl)methyl]amino}cyclopentan-1-ol] | < 200 | < 200 | < 200 | 
10 | Cn1cnnc1-c1cc(Cl)ccc1-c1cccc(-c2nc3cc(CN[C@@H]4CCC[C@@H]4O)cc(C(F)(F)F)c3[nH]2)c1 [ADB-9, (1S,2R)-2-(((2-(4′-Chloro-2′-(4-methyl-4H-1,2,4-triazol-3-yl)-[1,1′-biphenyl]-3-yl)-7-(trifluoromethyl)-1H-benzo[d]imidazol-5-yl)methyl)amino)cyclopentan-1-ol] | < 200 | < 200 | < 200 | 
11 | Cn1cnnc1[C@]1(c2cccc(-c3nc4cc(CN[C@@H]5CCC[C@@H]5O)cc(C(F)(F)F)c4o3)c2)C[C@@H](C)C1 [ADE-3, (1S,2R)-2-{[(2-{3-[(1r,3s)-3-Methyl-1-(4-methyl-1,2,4-triazol-3-yl)cyclobutyl]phenyl}-7-(trifluoromethyl)-1,3-benzoxazol-5-yl)methyl]amino}cyclopentan-1-ol] | < 200 |  | < 200 | < 200
12 | Cn1cnnc1-c1cc(Cl)ccc1-c1cccc(-c2nc3cc(CN[C@@H]4CCC[C@@H]4O)cc(C(F)(F)F)c3o2)c1 [ADI-3, (1S,2R)-2-[({2-[4′-Chloro-2′-(4-methyl-1,2,4-triazol-3-yl)-[1,1′-biphenyl]-3-yl]-7-(trifluoromethyl)-1,3-benzoxazol-5-yl}methyl)amino]cyclopentan-1-ol] | < 200 | < 200 | < 200 | 
13 | Cn1cnnc1-c1cc(Cl)ccc1-c1cccc(-c2nc3cc(CO)ccc3o2)c1 [ADK-1, {2-[4′-Chloro-2′-(4-methyl-1,2,4-triazol-3-yl)-[1,1′-biphenyl]-3-yl]-1,3-benzoxazol-5-yl}methanol] | 1000 to 10000 | 10000 to 50000 | 1000 to 10000 | 
14 | Cn1cnnc1-c1cc(Cl)ccc1-c1cccc(-c2nc3cc(CN[C@@H]4CCC[C@@H]4O)ccc3o2)c1 [ADL-2, (1S,2R)-2-[({2-[4′-Chloro-2′-(4-methyl-1,2,4-triazol-3-yl)-[1,1′-biphenyl]-3-yl]-1,3-benzoxazol-5-yl}methyl)amino]cyclopentan-1-ol] | < 200 | < 200 | < 200 | 
15 | CCOc1cc(-c2ccc(F)cc2-c2nncn2C)cc(-c2nc3cc(CN[C@@H]4CCC[C@@H]4O)cc(OC)c3o2)n1 [ADM-14, (1S,2R)-2-{[(2-{6-Ethoxy-4-[4-fluoro-2-(4-methyl-1,2,4-triazol-3-yl)phenyl]pyridin-2-yl}-7-methoxy-1,3-benzoxazol-5-yl)methyl]amino}cyclopentan-1-ol] | < 200 | < 200 | < 200 | 
16 | COCCNCc1cc(C(F)(F)F)c2oc(-c3cccc([C@]4(c5nncn5C)C[C@@H](C)C4)c3)nc2c1 [ADN-1, (2-Methoxyethyl)[(2-{3-[(1r,3s)-3-methyl-1-(4-methyl-1,2,4-triazol-3-yl)cyclobutyl]phenyl}-7-(trifluoromethyl)-1,3-benzoxazol-5-yl)methyl]amine] | < 200 | 200 to 1000 | 200 to 1000 | 
17 | C[C@H]1CCCN(Cc2cc(C(F)(F)F)c3oc(-c4cc(-c5ccc(F)cc5-c5nncn5C)cc(C5CC5)n4)nc3c2)C1 [ADO-1, 2-{6-Cyclopropyl-4-[4-fluoro-2-(4-methyl-1,2,4-triazol-3-yl)phenyl]pyridin-2-yl}-5-{[(3S)-3-methylpiperidin-1-yl]methyl}-7-(trifluoromethyl)-1,3-benzoxazole] | < 200 | < 200 | < 200 | 
